#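 Protocol summary: plate cells (96-well), add compound at 5 concentrations, incubate 48 h, interpolate endpoints linearly. The concentration for 50% growth inhibition is given as GI50. TGI is the concentration that stops growth completely.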
# Experiments:
# Assay in all cases: inhibition of tumour cell growth, NCI panel, 48 h
# CCRF-CEM leukemia = tested on: CCRF-CEM leukemia
# IGROV1 ovarian = tested on: IGROV1 ovarian
# OVCAR-3 ovarian = tested on: OVCAR-3 ovarian
# HT29 colon = tested on: HT29 colon
# HL-60(TB) leukemia = tested on: HL-60(TB) leukemia
# SF-539 CNS = tested on: SF-539 CNS
# SK-MEL-28 melanoma = tested on: SK-MEL-28 melanoma
# PC-3 prostate = tested on: PC-3 prostate
# SK-MEL-5 melanoma = tested on: SK-MEL-5 melanoma
# HCT-116 colon = tested on: HCT-116 colon
# NCI-H226 lung = tested on: NCI-H226 lung
# COLO 205 colon = tested on: COLO 205 colon
# NCI-H460 lung = tested on: NCI-H460 lung
# DU-145 prostate = tested on: DU-145 prostate
# OVCAR-8 ovarian = tested on: OVCAR-8 ovarian
# NCI-H23 lung = tested on: NCI-H23 lung
# SK-OV-3 ovarian = tested on: SK-OV-3 ovarian
# HOP-92 NSCLC = tested on: HOP-92 NSCLC
# MALME-3M melanoma = tested on: MALME-3M melanoma
# A498 renal = tested on: A498 renal
# HCT-15 colon = tested on: HCT-15 colon
# U251 CNS = tested on: U251 CNS
# NCI/ADR-RES ovarian = tested on: NCI/ADR-RES ovarian
# SR leukemia = tested on: SR leukemia
# SW-620 colon = tested on: SW-620 colon
# EKVX NSCLC = tested on: EKVX NSCLC
# SN12C renal = tested on: SN12C renal
# HCC-2998 colon = tested on: HCC-2998 colon
# SK-MEL-2 melanoma = tested on: SK-MEL-2 melanoma
# K-562 leukemia = tested on: K-562 leukemia
# RPMI-8226 leukemia = tested on: RPMI-8226 leukemia
# UO-31 renal = tested on: UO-31 renal
# SF-268 CNS = tested on: SF-268 CNS
# CAKI-1 renal = tested on: CAKI-1 renal
# RXF 393 renal = tested on: RXF 393 renal
# MDA-MB-231 breast = tested on: MDA-MB-231 breast
# MCF7 breast = tested on: MCF7 breast
# UACC-62 melanoma = tested on: UACC-62 melanoma
# ACHN renal = tested on: ACHN renal
# A549 NSCLC = tested on: A549 NSCLC
# BT-549 breast = tested on: BT-549 breast
# OVCAR-4 ovarian = tested on: OVCAR-4 ovarian
# LOX IMVI melanoma = tested on: LOX IMVI melanoma
# UACC-257 melanoma = tested on: UACC-257 melanoma
# SNB-19 CNS = tested on: SNB-19 CNS
# HS 578T breast = tested on: HS 578T breast
# M14 melanoma = tested on: M14 melanoma
# TK-10 renal = tested on: TK-10 renal
# MOLT-4 leukemia = tested on: MOLT-4 leukemia
# MDA-MB-435 = tested on: MDA-MB-435
# 786-0 renal = tested on: 786-0 renal
# SNB-75 CNS = tested on: SNB-75 CNS
# NCI-H522 lung = tested on: NCI-H522 lung
# OVCAR-5 ovarian = tested on: OVCAR-5 ovarian
# T-47D breast = tested on: T-47D breast
# KM12 colon = tested on: KM12 colon
# SF-295 CNS = tested on: SF-295 CNS
# HOP-62 NSCLC = tested on: HOP-62 NSCLC
smiles,measurement,setting,value
O=C1Nc2cc(-c3cccc(O)c3)ccc2/C1=C/c1ccc[nH]1,GI50,CCRF-CEM leukemia,2270 nM
same,TGI,CCRF-CEM leukemia,> 100000 nM
same,GI50,IGROV1 ovarian,1010 nM
same,TGI,IGROV1 ovarian,10100 nM
same,GI50,OVCAR-3 ovarian,1430 nM
same,TGI,OVCAR-3 ovarian,5850 nM
same,GI50,HT29 colon,4710 nM
same,TGI,HT29 colon,30600 nM
same,GI50,HL-60(TB) leukemia,1510 nM
same,TGI,HL-60(TB) leukemia,7050 nM
same,GI50,SF-539 CNS,1120 nM
same,TGI,SF-539 CNS,2490 nM
same,GI50,SK-MEL-28 melanoma,1730 nM
same,TGI,SK-MEL-28 melanoma,3590 nM
same,GI50,PC-3 prostate,2530 nM
same,TGI,PC-3 prostate,10700 nM
same,GI50,SK-MEL-5 melanoma,1600 nM
same,TGI,SK-MEL-5 melanoma,3320 nM
same,GI50,HCT-116 colon,1320 nM
same,TGI,HCT-116 colon,3440 nM
same,GI50,NCI-H226 lung,2790 nM
same,TGI,NCI-H226 lung,11400 nM
same,GI50,COLO 205 colon,4370 nM
same,TGI,COLO 205 colon,28600 nM
same,GI50,NCI-H460 lung,460 nM
same,TGI,NCI-H460 lung,3960 nM
same,GI50,DU-145 prostate,3160 nM
same,TGI,DU-145 prostate,23600 nM
same,GI50,OVCAR-8 ovarian,3450 nM
same,TGI,OVCAR-8 ovarian,49200 nM
same,GI50,NCI-H23 lung,182 nM
same,TGI,NCI-H23 lung,4560 nM
same,GI50,SK-OV-3 ovarian,655 nM
same,TGI,SK-OV-3 ovarian,5220 nM
same,GI50,HOP-92 NSCLC,1900 nM
same,TGI,HOP-92 NSCLC,6260 nM
same,GI50,MALME-3M melanoma,1340 nM
same,TGI,MALME-3M melanoma,3710 nM
same,GI50,A498 renal,1480 nM
same,TGI,A498 renal,4100 nM
same,GI50,HCT-15 colon,271 nM
same,TGI,HCT-15 colon,12700 nM
same,GI50,U251 CNS,2380 nM
same,TGI,U251 CNS,12100 nM
same,GI50,NCI/ADR-RES ovarian,2510 nM
same,TGI,NCI/ADR-RES ovarian,12500 nM
same,GI50,SR leukemia,28.2 nM
same,TGI,SR leukemia,1820 nM
same,GI50,SW-620 colon,1170 nM
same,TGI,SW-620 colon,8270 nM
same,GI50,EKVX NSCLC,121 nM
same,TGI,EKVX NSCLC,17000 nM
same,GI50,SN12C renal,1600 nM
same,TGI,SN12C renal,7110 nM
same,GI50,HCC-2998 colon,2030 nM
same,TGI,HCC-2998 colon,11800 nM
same,GI50,SK-MEL-2 melanoma,1480 nM
same,TGI,SK-MEL-2 melanoma,6770 nM
same,GI50,K-562 leukemia,355 nM
same,TGI,K-562 leukemia,> 100000 nM
same,GI50,RPMI-8226 leukemia,588 nM
same,TGI,RPMI-8226 leukemia,5830 nM
same,GI50,UO-31 renal,359 nM
same,TGI,UO-31 renal,3780 nM
same,GI50,SF-268 CNS,1760 nM
same,TGI,SF-268 CNS,8040 nM
same,GI50,CAKI-1 renal,1790 nM
same,TGI,CAKI-1 renal,5910 nM
same,GI50,RXF 393 renal,476 nM
same,TGI,RXF 393 renal,2730 nM
same,GI50,MDA-MB-231 breast,163 nM
same,TGI,MDA-MB-231 breast,7390 nM
same,GI50,MCF7 breast,257 nM
same,TGI,MCF7 breast,2440 nM
same,GI50,UACC-62 melanoma,2630 nM
same,TGI,UACC-62 melanoma,8890 nM
same,GI50,ACHN renal,515 nM
same,TGI,ACHN renal,5500 nM
same,GI50,A549 NSCLC,3050 nM
same,TGI,A549 NSCLC,11800 nM
same,GI50,BT-549 breast,506 nM
same,TGI,BT-549 breast,3960 nM
same,GI50,OVCAR-4 ovarian,305 nM
same,TGI,OVCAR-4 ovarian,16200 nM
same,GI50,LOX IMVI melanoma,1310 nM
same,TGI,LOX IMVI melanoma,3110 nM
same,GI50,UACC-257 melanoma,2810 nM
same,TGI,UACC-257 melanoma,8530 nM
same,GI50,SNB-19 CNS,3500 nM
same,TGI,SNB-19 CNS,15100 nM
same,GI50,HS 578T breast,1510 nM
same,TGI,HS 578T breast,5730 nM
same,GI50,M14 melanoma,1680 nM
same,TGI,M14 melanoma,3540 nM
same,GI50,TK-10 renal,833 nM
same,TGI,TK-10 renal,9190 nM
same,GI50,MOLT-4 leukemia,1070 nM
same,TGI,MOLT-4 leukemia,33600 nM
same,GI50,MDA-MB-435,391 nM
same,TGI,MDA-MB-435,1660 nM
same,GI50,786-0 renal,2220 nM
same,TGI,786-0 renal,7320 nM
same,GI50,SNB-75 CNS,1310 nM
same,TGI,SNB-75 CNS,4530 nM
same,GI50,NCI-H522 lung,1600 nM
same,TGI,NCI-H522 lung,14100 nM
same,GI50,OVCAR-5 ovarian,2890 nM
same,TGI,OVCAR-5 ovarian,15400 nM
same,GI50,T-47D breast,170 nM
same,TGI,T-47D breast,472 nM
same,GI50,KM12 colon,225 nM
same,TGI,KM12 colon,2520 nM
same,GI50,SF-295 CNS,2340 nM
same,TGI,SF-295 CNS,5230 nM
same,GI50,HOP-62 NSCLC,2300 nM
same,TGI,HOP-62 NSCLC,8550 nM

# Source: PubChem BioAssay (NCI)
